Patent US20250319105A1, “NEUROACTIVE STEROID FOR THE TREATMENT OF ALZHEIMER'S DISEASE” (SAGE THERAPEUTICS, INC., priority 2021, published 2025)
“Also recorded” adds a separate entry of the source.

Key:
[1] = tested on: participants with MCI or mild dementia due to AD; assay: Open-label study: global cognition, Montreal Cognitive Assessment (MoCA); assay type: in vivo, human; conditions: 3 mg once daily oral for 14 days
Text: (§1) Additional objectives of the study were to assess the following: • PK profile of Compound 1 following administration of multiple doses as assessed by periodic PK sampling • Change from baseline on tests of executive function. • Change from baseline on tests of learning and memory. • Verbal Recognition Memory • Paired Associates Learning • Pattern Recognition Memory • Spatial Span • Change from baseline on tests of social cognition. • Emotion Recognition Task • Emotion Bias Task • Change from baseline on tests of psychomotor function. • Change from baseline on assessments of neuropsychiatric symptoms: • Change from baseline in performance on the Montreal Cognitive Assessment • Change from baseline in Clinical Global Impressions-Severity scores • Overall scores on Clinical Global Impressions-Improvement scales • Change from baseline in Amsterdam Instrumental Activities of Daily Living • Change from baseline in exploratory peripheral biomarkers • Amyloid PET Scan

[2] = Open-label study: PK sampling, plasma concentrations; assay type: in vivo, human; conditions: Day 7 and Day 14; 3 mg once daily oral with a meal
Text: as §1

[3] = tested on: participants with MCI or mild dementia due to AD; assay: Open-label study: tests of learning and memory (PAL, PRM, VRM, Spatial Span); assay type: in vivo, human
Text: as §1
The tests of Learning and Memory included Paired Associates Learning (PAL), which assesses how well the subject remembers the location of hidden objects; Pattern Recognition Memory (PRM), which assesses how well the subject remembers a pattern; and Verbal Recognition Memory […], which assesses how well the subject stores and retrieves verbal information.

[4] = tested on: participants with MCI or mild dementia due to AD; assay: Open-label study: tests of attention and psychomotor performance (RTI, PVT); assay type: in vivo, human; conditions: 3 mg once daily oral for 14 days
Text: as §1
The tests of Attention and Psychomotor Performance included Reaction Time (RTI), which assesses how fast the subject can respond to a stimulus (weekly measure); Psychomotor Vigilance Task (PVT), which assesses how fast can the subject respond to a stimulus (daily measure).

[5] = tested on: participants with MCI or mild dementia due to AD; assay: Open-label study: safety and tolerability (TEAEs, laboratory, vital signs, ECG); conditions: 3 mg once daily oral for 14 days
Text: The Study comprised a 2-week screening period, a 1-week baseline period, a 2-week open-label treatment period, and a 2-week follow-up period. […] During the 1-week pre-treatment baseline period, patients underwent repeated cognitive testing using a comprehensive battery of tests to establish a robust cognitive baseline across multiple domains of cognitive function.
The key inclusion criteria for the subjects were as follows: • Be between the ages of 50 and 80 years, inclusive, at Screening • Meet the following criteria for MCI or mild dementia due to AD at Screening: • A memory complaint reported by the participant or his/her study partner • A CDR score of 0.5 to 1.0 (inclusive) with a memory box score ≥0.5 • Essentially preserved activities of daily living, in the opinion of the investigator. • Brain MRI report, obtained within the 2 years preceding the Baseline Period, that is consistent with the diagnosis of AD-MCI with no clinically significant findings of non-AD pathology that could account for the observed cognitive impairment • Have a score of 15 to 24 (inclusive) on the MoCA at Screening • Have an estimated premorbid IQ≥85 (as assessed by the Test of Premorbid Functioning, performed at Screening
The Primary objective of the study was to assess (1) the incidence of Treatment-Emergent Adverse Event (TEAE).
The secondary objectives of the study were to assess: • the percentage of Participants With Clinically Significant Changes in Vital Sign Measurements, clinical laboratory analytes, electrocardiograms (ECGs), and responses on the Columbia-Suicide Severity Rating Scale (C-SSRS).

[6] = tested on: participants with MCI or mild dementia due to AD; assay: Open-label study: tests of executive functioning (MTT, OTS, SWM, DSST, 2-Back); assay type: in vivo, human
Text: as §1
The tests of Executive Functioning included (1) Multitasking Test (MTT), which assesses how well the subject manages conflicting information; (2) One Touch Stockings of Cambridge (OTS), which assesses how well the subject plans, holds onto, and manipulates information to solve a puzzle; (3) Spatial Working Memory (SWM), which assesses how well the subject develops and uses a strategy to find hidden information; (4) Digit Symbol Substitution Task (DSST), which assesses how efficiently can the subject complete a demanding task (daily measure); and (5) Two-Back Test (NBX), which asks is the symbol the same as that shown two symbols ago.

[7] = 3 mg once daily oral for 14 days, change from baseline, Clinic/Weekly

SMILES: C[C@H](CC[C@](C)(O)C(F)(F)F)[C@H]1CC[C@H]2[C@@H]3CC=C4C[C@@](C)(O)CC[C@]4(C)[C@H]3CC[C@]12C [Compound 1]
- MoCA (Global), Directional Trend ([1]; change from baseline, Monthly): Improvement
- MoCA score, mean CFB (change from baseline) ([1]; CFB at Day 28, n = 20): 2.3
- MoCA score, mean ([1]; Day 28, n = 20, baseline mean 20.5): (22.8
- Improvement in global cognition, assessed via MoCA ([1]; statistically significant): +2.3 pts
- Plasma concentrations versus predicted range [2]: consistent with the predicted range
- Paired Associates Learning, Directional Trend [3, 7]: no change (or slight worsening); also recorded: Mixed
- Pattern Recognition Memory, Directional Trend [3, 7]: numerical improvement
- Spatial Span, Directional Trend [3, 7]: no change (or slight worsening); also recorded: Mixed
- Verbal Recognition Memory, Directional Trend [3, 7]: Improvement
- Performance on tests of learning and memory ([3]; Day 14 vs baseline, 3 mg once daily oral): additional signals suggesting improved performance
- Changes in attention or psychomotor processing [4]: No changes
- Reaction Time, Directional Trend ([4]; change from baseline, Clinic/Weekly): No Change
- Psychomotor Vigilance Task, Directional Trend ([4]; change from baseline, Mobile/Daily): No Change
- Clinically significant laboratory abnormalities ([5]; 26 enrolled subjects): No clinically significant laboratory abnormalities
- Clinically significant vital sign or ECG abnormalities ([5]; 26 enrolled subjects): No clinically significant vital sign or ECG abnormalities
- Number of TEAEs ([5]; 26 enrolled subjects): 8
- Severe TEAEs, SAEs, or deaths ([5]; 26 enrolled subjects): No severe TEAEs, SAEs, or deaths
- TEAEs resulting in study drug discontinuation or withdrawal from the study ([5]; 26 enrolled subjects): No TEAEs resulted in study drug discontinuation or withdrawal from the study
- Mild TEAEs, n (%) ([5]; of 8 TEAEs): 4 (50%)
- Moderate TEAEs, n (%) ([5]; of 8 TEAEs): 4 (50%)
- Number of TEAEs considered related to study treatment ([5]; of 8 TEAEs): 6
- Number of subjects who experienced TEAEs ([5]; of the 26 enrolled subjects): 7
- 2-Back Test, Directional Trend [6, 7]: numerical improvement
- Multitasking, Directional Trend [6, 7]: numerical improvement
- One Touch Stockings, Directional Trend [6, 7]: numerical improvement
- Spatial working Memory, Directional Trend [6, 7]: numerical improvement
- Digit Symbol Substitution, Directional Trend ([6]; 3 mg once daily oral for 14 days, change from baseline, Mobile/Daily): numerical improvement
- Performance from baseline on all tests of executive functioning ([6]; Day 14, 3 mg once daily oral): improved performance
